Measurements: US10647679B2, “N-methyl-D-aspartate receptor (NMDAR) potentiators, pharmaceutical compositions, and uses related thereto” (Emory University, priority 2015, dated 2020)
pEC50: −log10 of the molar value. Read-outs that look alike come from different tables or passages of the source. Values belong to the compound of their own block, whether it stands above or below them.

Experiments:
Assay type in all cases: cell-based
[1] = target: T1, recombinant rat GluN1/GluN2B (Rattus norvegicus, UniProt Q00960); assay: Two-electrode voltage-clamp (TEVC) recordings in Xenopus laevis oocytes, GluN1/GluN2B; conditions: for I30 μM/Icontrol (mean ± SEM, %) GluN2B: 30 μM compound, Tables 5-7; for I10 μM/Icontrol (mean ± SEM, %) GluN2B: 10 μM compound, Table 3
T1 construct: expressed in transfected cells; host or cells: Xenopus laevis oocytes (Ecocyte) injected with in vitro transcribed cRNA
Description: (§1) Data are from between 3-26 oocytes from 2-5 frogs for each compound and receptor tested.
(§2) Two-electrode voltage-clamp recordings were performed in Xenopus laevis oocytes (Ecocyte) expressing recombinant rat GluN1/GluN2A, GluN1/GluN2B, GluN1/GluN2C, GluN1/GluN2D. cRNA was transcribed in vitro (Ambion), diluted with nuclease free water, and injected at a ratio of 1:2 GluN1:GluN2 (5-10 ng total cRNA). The oocytes were kept in Barth's solution comprised of (in mM) 88 NaCl, 5 Tris-HCl, 2.4 NaHCO3, 1 KCl, 0.84 MgSO4, 0.41 CaCl2, and 0.33 Ca(NO3)2 at pH 7.4 at 15-17° C. for two to five days before experiments. Oocytes were placed into a perfusion chamber and continually washed with recording solution containing (in mM) 90 NaCl, 1.0 KCl, 0.5 BaCl2, 0.005 EDTA, and 10 HEPES at pH 7.4 (23° C.). Voltage clamp recordings were conducted at a holding potential of −40 mV. All compounds were made as 20 mM stock solutions in DMSO and dissolved to reach the final concentration in recording solution. Final DMSO content was 0.05-0.5% (vol/vol). Some oocytes expressing GluN1/GluN2A were pretreated with […] BAPTA-AM for 10 minutes or injected with […] of 2 mM K-BAPTA to prevent gradual run-up of the current response.

[2] = target: T2, recombinant rat GluN1/GluN2B (Rattus norvegicus, UniProt P35439+Q00960); assay: as above
T2 construct: expressed in transfected cells; host or cells: Xenopus laevis oocytes (Ecocyte) injected with in vitro transcribed cRNA
T2 sequence (Q00960 27-1482, other chains not shown): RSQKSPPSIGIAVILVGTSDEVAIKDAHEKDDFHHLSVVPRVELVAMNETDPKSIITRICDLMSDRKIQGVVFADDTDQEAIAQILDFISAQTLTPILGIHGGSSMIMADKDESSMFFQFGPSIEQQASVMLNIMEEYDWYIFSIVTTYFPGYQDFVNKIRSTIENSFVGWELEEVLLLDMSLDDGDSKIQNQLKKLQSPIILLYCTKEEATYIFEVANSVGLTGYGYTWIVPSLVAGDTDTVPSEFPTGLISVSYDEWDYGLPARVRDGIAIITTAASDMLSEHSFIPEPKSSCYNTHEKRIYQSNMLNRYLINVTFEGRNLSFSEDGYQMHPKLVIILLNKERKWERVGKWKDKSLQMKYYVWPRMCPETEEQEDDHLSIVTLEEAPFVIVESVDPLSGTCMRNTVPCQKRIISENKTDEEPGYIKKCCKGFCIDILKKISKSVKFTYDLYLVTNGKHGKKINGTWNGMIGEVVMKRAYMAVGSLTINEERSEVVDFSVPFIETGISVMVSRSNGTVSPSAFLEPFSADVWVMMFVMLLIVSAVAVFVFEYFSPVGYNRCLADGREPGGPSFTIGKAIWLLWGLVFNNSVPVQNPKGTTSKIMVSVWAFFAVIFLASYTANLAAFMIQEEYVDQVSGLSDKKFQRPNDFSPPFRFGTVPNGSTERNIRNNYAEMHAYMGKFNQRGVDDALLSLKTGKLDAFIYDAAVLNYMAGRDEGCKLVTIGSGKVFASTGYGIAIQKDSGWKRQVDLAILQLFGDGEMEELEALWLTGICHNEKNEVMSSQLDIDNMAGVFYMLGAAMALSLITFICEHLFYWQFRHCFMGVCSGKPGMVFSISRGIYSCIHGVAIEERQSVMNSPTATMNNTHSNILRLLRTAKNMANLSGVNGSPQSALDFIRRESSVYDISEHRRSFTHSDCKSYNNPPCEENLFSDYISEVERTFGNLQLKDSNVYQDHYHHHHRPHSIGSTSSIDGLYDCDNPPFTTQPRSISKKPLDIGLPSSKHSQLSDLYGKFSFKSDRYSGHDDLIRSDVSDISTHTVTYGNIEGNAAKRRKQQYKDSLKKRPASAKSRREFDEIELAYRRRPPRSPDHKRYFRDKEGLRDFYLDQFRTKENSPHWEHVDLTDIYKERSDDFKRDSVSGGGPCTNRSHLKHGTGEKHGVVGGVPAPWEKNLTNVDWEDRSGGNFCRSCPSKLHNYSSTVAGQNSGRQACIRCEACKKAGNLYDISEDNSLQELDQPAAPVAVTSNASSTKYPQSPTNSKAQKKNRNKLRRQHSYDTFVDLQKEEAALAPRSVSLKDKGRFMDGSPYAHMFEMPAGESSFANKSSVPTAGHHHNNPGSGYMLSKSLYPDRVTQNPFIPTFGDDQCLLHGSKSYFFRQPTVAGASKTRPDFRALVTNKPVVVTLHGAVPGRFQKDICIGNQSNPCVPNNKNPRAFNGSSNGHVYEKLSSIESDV
Description: as §1, §2

[3] = target: T3, recombinant rat GluN1/GluN2D (Rattus norvegicus, UniProt Q62645); assay: Two-electrode voltage-clamp (TEVC) recordings in Xenopus laevis oocytes, GluN1/GluN2D; conditions: for I30 μM/Icontrol (mean ± SEM, %) GluN2D: 30 μM compound, Tables 5-7; for I10 μM/Icontrol (mean ± SEM, %) GluN2D: 10 μM compound, Table 3
T3 construct: expressed in transfected cells; host or cells: Xenopus laevis oocytes (Ecocyte) injected with in vitro transcribed cRNA
T3 sequence (Q62645 28-1323, other chains not shown): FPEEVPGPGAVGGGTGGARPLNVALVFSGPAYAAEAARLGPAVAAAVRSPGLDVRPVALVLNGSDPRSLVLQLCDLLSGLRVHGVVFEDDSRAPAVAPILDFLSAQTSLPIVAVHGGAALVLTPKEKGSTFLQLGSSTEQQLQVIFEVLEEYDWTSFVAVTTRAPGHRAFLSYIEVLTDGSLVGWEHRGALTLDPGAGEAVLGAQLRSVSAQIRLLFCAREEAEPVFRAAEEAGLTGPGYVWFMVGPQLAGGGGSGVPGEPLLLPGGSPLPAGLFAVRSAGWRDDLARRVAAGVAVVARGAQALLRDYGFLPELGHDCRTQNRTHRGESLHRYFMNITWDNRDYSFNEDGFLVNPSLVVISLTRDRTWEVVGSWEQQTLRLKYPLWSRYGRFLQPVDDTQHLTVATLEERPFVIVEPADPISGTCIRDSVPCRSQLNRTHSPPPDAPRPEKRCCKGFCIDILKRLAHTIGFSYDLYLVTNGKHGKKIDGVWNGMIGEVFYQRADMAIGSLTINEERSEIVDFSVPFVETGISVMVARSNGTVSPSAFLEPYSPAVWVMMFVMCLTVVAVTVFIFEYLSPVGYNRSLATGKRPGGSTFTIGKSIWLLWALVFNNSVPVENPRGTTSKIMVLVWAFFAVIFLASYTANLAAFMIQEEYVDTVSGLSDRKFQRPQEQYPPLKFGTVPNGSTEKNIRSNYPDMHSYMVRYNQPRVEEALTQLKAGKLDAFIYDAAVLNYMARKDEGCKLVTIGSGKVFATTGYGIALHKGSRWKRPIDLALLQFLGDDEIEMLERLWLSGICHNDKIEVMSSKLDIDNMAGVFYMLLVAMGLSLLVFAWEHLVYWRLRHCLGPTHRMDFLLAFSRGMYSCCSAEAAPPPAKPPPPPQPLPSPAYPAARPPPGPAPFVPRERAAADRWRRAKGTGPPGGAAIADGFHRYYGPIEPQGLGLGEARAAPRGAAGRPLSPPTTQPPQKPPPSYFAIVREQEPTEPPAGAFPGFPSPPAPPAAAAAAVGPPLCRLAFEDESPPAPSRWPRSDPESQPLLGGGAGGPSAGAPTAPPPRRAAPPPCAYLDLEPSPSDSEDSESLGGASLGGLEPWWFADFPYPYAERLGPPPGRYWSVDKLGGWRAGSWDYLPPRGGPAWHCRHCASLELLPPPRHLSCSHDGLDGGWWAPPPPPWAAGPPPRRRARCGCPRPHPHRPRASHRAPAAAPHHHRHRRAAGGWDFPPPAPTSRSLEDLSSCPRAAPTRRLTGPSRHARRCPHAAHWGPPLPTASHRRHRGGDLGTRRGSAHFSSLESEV
Description: as §1, §2

[4] = target: T4, recombinant rat GluN1/GluN2C (Rattus norvegicus, UniProt P35439+Q00961); assay: Two-electrode voltage-clamp (TEVC) recordings in Xenopus laevis oocytes, GluN1/GluN2C
T4 construct: expressed in transfected cells; host or cells: Xenopus laevis oocytes (Ecocyte) injected with in vitro transcribed cRNA
T4 sequence (Q00961 20-1237, other chains not shown): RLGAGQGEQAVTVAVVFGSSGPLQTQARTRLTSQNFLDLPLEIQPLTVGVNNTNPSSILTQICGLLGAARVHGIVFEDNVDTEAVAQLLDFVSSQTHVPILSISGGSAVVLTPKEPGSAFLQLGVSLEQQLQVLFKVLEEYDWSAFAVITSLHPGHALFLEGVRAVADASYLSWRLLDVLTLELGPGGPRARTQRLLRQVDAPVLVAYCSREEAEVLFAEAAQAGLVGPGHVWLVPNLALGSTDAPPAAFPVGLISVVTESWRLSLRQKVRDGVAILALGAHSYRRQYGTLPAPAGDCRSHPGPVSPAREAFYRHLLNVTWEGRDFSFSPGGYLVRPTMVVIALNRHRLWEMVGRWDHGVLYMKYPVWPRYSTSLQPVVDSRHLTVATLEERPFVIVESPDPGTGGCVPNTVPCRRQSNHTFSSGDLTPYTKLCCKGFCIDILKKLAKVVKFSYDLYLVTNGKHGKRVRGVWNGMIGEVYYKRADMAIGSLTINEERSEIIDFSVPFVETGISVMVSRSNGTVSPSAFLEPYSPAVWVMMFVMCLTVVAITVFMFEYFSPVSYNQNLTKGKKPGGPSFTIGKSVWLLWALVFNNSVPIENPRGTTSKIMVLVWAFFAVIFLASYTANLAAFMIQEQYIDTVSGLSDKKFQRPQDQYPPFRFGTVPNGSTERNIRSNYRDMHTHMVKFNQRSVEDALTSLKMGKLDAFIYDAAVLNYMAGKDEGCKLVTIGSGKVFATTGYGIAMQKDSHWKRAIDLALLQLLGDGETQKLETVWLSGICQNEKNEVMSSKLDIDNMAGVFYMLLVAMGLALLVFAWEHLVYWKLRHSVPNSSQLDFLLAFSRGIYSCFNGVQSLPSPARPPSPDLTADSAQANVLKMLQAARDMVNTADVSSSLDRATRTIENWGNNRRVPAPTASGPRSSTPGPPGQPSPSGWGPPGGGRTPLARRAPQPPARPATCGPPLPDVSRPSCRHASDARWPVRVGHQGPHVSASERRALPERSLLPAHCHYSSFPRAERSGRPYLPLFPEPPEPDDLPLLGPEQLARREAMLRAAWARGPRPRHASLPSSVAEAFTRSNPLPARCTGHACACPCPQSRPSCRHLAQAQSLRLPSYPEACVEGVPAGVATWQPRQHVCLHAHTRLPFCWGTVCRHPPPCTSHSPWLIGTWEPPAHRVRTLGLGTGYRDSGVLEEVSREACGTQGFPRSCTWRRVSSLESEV
Description: as §1, §2

[5] = target: T5, recombinant rat GluN1/GluN2C (Rattus norvegicus, UniProt Q00961); assay: as above; conditions: for I30 μM/Icontrol (mean ± SEM, %) GluN2C: 30 μM compound, Tables 5-7; for I10 μM/Icontrol (mean ± SEM, %) GluN2C: 10 μM compound, Table 3
T5 construct: expressed in transfected cells; host or cells: Xenopus laevis oocytes (Ecocyte) injected with in vitro transcribed cRNA
T5 sequence (Q00961 20-1237, other chains not shown): as above
Description: as §1, §2

[6] = target: T6, recombinant rat GluN1/GluN2D (Rattus norvegicus, UniProt P35439+Q62645); assay: Two-electrode voltage-clamp (TEVC) recordings in Xenopus laevis oocytes, GluN1/GluN2D
T6 construct: expressed in transfected cells; host or cells: Xenopus laevis oocytes (Ecocyte) injected with in vitro transcribed cRNA
T6 sequence (Q62645 28-1323, other chains not shown): as the sequence (Q62645 28-1323, other chains not shown) above
Description: as §1, §2

[7] = fitted when potentiation at 30 μM exceeded 120%, Tables 3, 5-7, read-out: EC50 (max.) (μM %) GluN2B: fitted EC50
[8] = maximum potentiation, response without modulator = 100%, read-out: GluN2B EC50 (μM)/Max %: Max %
[9] = percentage of the initial glutamate (100 μM) and glycine (30 μM) current, read-out: EC50 (max.) (μM %) GluN2B: fitted maximum response
[10] = fitted when potentiation at 30 μM exceeded 120%, Tables 3, 5-7, read-out: EC50 (max.) (μM %) GluN2C: fitted EC50
[11] = maximum potentiation, response without modulator = 100%, read-out: GluN2C EC50 (μM)/Max %: Max %
[12] = percentage of the initial glutamate (100 μM) and glycine (30 μM) current, read-out: EC50 (max.) (μM %) GluN2C: fitted maximum response
[13] = percentage of the initial glutamate (100 μM) and glycine (30 μM) current, read-out: EC50 (max.) (μM %) GluN2D: fitted maximum response
[14] = fitted when potentiation at 30 μM exceeded 120%, Tables 3, 5-7, read-out: EC50 (max.) (μM %) GluN2D: fitted EC50
[15] = Tables 11-13, read-out: EC50 & Max Effect: 2D Max (%)
[16] = Tables 11-13, read-out: EC50 & Max Effect: 2C Max (%)

Compound: CCOc1ccc(OCC2c3ccc(OC(C)C)cc3CCN2C(=O)c2ccc(Cl)c(Cl)c2)cc1 (stereo not shown) [1180-103]
- I30 μM/Icontrol (mean ± SEM, %) GluN2B [1]: 120%
- EC50 [2, 7]: 1.4 µM
- Emax [2, 8]: 130%
- Emax [2, 9]: 134%
- I30 μM/Icontrol (mean ± SEM, %) GluN2D [3]: 101%
- EC50 [4, 10]: 0.65 µM
- Emax [4, 11]: 137%
- Emax [4, 12]: 139%
- I30 μM/Icontrol (mean ± SEM, %) GluN2C [5]: 134%

Compound: COc1ccc(OCC2c3ccc(N(C)C)cc3CCN2C(=O)c2cccc(Cl)c2)cc1 (stereo not shown) [1180-104]
- Emax [2, 8]: 132%
- Emax ([6]; maximum potentiation, response without modulator = 100%, read-out: GluN2D EC50 (μM)/Max %: Max %): 349%
- Emax [4, 11]: 315%

Compound: CC(C)Oc1ccc(OCC2c3ccc(OC(C)C)cc3CCN2C(=S)c2cccc(Cl)c2)cc1 (stereo not shown) [1180-265]
- EC50 ([2]; untitled tables after drawing 25 and drawing 36, read-out: EC50 (μM) GluN2B): 0.6 µM
- EC50 ([6]; untitled tables after drawing 25 and drawing 36, read-out: EC50 (μM) GluN2D): 0.4 µM
- EC50 ([4]; untitled tables after drawing 25 and drawing 36, read-out: EC50 (μM) GluN2C): 0.3 µM

Compound: COc1ccc(OCC2c3ccc(N(C)C)cc3CCN2C(=O)c2cccc(Br)c2)cc1 (stereo not shown) [drawing 33 R1=Br R2=H R3=H R4=NMe2 R5=H]
- Emax [6, 15]: 327%
- Emax [4, 16]: 293%

Compound: COc1ccc(OCC2c3ccc(OC(C)C)cc3CCN2C(=O)c2cccc(Cl)c2)cc1 (stereo not shown) [1180-55]
- I10 μM/Icontrol (mean ± SEM, %) GluN2B [1]: 191%
- EC50 [2, 7]: 5 µM
- Emax [2, 8]: 193%
- Emax [2, 9]: 215%
- I10 μM/Icontrol (mean ± SEM, %) GluN2D [3]: 281%
- EC50 ([6]; EC50 & Max Effect: 2D (μM)): 2.9 µM
- EC50 [6, 14]: 4.3 µM
- Emax [6, 13]: 323%
- Emax [4, 11]: 266%
- Emax [4, 12]: 250%
- Emax ([4]; read-out: EC50 & Max Effect: 2C Max (%)): 266%
- I10 μM/Icontrol (mean ± SEM, %) GluN2C [5]: 231%

Compound: COc1ccc(OCC2c3cc(OC)c(OC)cc3CCN2C(=O)c2ccccc2)cc1 (stereo not shown) [drawing 33 R1=H R2=H R3=H R4=OMe R5=OMe]
- pEC50 ([6]; Tables 11-13, read-out: EC50 & Max Effect: 2D): 4.94
- Emax [6, 15]: 156%
- pEC50 ([4]; Tables 11-13, read-out: EC50 & Max Effect: 2C): 4.91
- Emax [4, 16]: 450%

Compound: COc1ccc(OC[C@H]2c3ccc(OC(C)C)cc3CCN2C(=O)c2cccc(Cl)c2)cc1 [(R)-(+)-1180-55]
- I10 μM/Icontrol (mean ± SEM, %) GluN2B [1]: 150%
- EC50 [2, 7]: 5 µM
- Emax [2, 9]: 167%
- I10 μM/Icontrol (mean ± SEM, %) GluN2D [3]: 345%
- EC50 [6, 14]: 1.3 µM
- Emax [6, 13]: 384%
- Emax [4, 12]: 342%
- I10 μM/Icontrol (mean ± SEM, %) GluN2C [5]: 323%

The next lines start with the values.

- I30 μM/Icontrol (mean ± SEM, %) GluN2B [1]: 185%
- EC50 [2, 7]: 1 µM
- Emax [2, 8]: 171%
- Emax [2, 9]: 179%
- I30 μM/Icontrol (mean ± SEM, %) GluN2D [3]: 126%
- Emax [6, 13]: 128%
- EC50 [4, 10]: 0.33 µM
- Emax [4, 11]: 138%
- Emax [4, 12]: 141%
- I30 μM/Icontrol (mean ± SEM, %) GluN2C [5]: 139%
Compound: CCOc1ccc(OCC2c3ccc(OC(C)C)cc3CCN2C(=S)c2cccc(C(F)(F)F)c2)cc1 (stereo not shown) [1180-168]

- I30 μM/Icontrol (mean ± SEM, %) GluN2B [1]: 156%
- EC50 [2, 7]: 0.21 µM
- Emax [2, 9]: 173%
- I30 μM/Icontrol (mean ± SEM, %) GluN2D [3]: 157%
- EC50 [6, 14]: 0.3 µM
- Emax [6, 13]: 160%
- EC50 [4, 10]: 0.24 µM
- Emax [4, 12]: 182%
- I30 μM/Icontrol (mean ± SEM, %) GluN2C [5]: 146%
Compound: CCOc1ccc(OC[C@H]2c3ccc(OC(C)C)cc3CCN2C(=S)c2cccc(C(F)(F)F)c2)cc1 [(R)-(+)-1180-168]

- I30 μM/Icontrol (mean ± SEM, %) GluN2B [1]: 206%
- EC50 [2, 7]: < 0.5 µM
- Emax [2, 9]: 213%
- I30 μM/Icontrol (mean ± SEM, %) GluN2D [3]: 185%
- EC50 [6, 14]: 0.47 µM
- Emax [6, 13]: 190%
- EC50 [4, 10]: 0.46 µM
- Emax [4, 12]: 163%
- I30 μM/Icontrol (mean ± SEM, %) GluN2C [5]: 153%
Compound: CCOc1ccc(OC[C@@H]2c3ccc(OC(C)C)cc3CCN2C(=S)c2cccc(F)c2)cc1 [(S)-(−)-1180-154]

- I10 μM/Icontrol (mean ± SEM, %) GluN2B [1]: 121%
- I10 μM/Icontrol (mean ± SEM, %) GluN2D [3]: 215%
- EC50 [6, 14]: 2.3 µM
- Emax [6, 13]: 255%
- Emax [4, 12]: 252%
- I10 μM/Icontrol (mean ± SEM, %) GluN2C [5]: 252%
Compound: COc1ccc(OC[C@H]2c3ccc(OC(C)C)cc3CCN2C(=S)c2cccc(Cl)c2)cc1 [(R)-(+)-1180-163]

- I10 μM/Icontrol (mean ± SEM, %) GluN2B [1]: 203%
- EC50 [2, 7]: 0.28 µM
- Emax [2, 9]: 202%
- I10 μM/Icontrol (mean ± SEM, %) GluN2D [3]: 299%
- EC50 [6, 14]: 0.5 µM
- Emax [6, 13]: 313%
- EC50 [4, 10]: 0.5 µM
- Emax [4, 12]: 316%
- I10 μM/Icontrol (mean ± SEM, %) GluN2C [5]: 302%
Compound: COc1ccc(OC[C@@H]2c3ccc(OC(C)C)cc3CCN2C(=S)c2cccc(Cl)c2)cc1 [(S)-(−)-1180-163]

- I30 μM/Icontrol (mean ± SEM, %) GluN2B [1]: 195%
- EC50 [2, 7]: 6.7 µM
- Emax [2, 9]: 206%
- I30 μM/Icontrol (mean ± SEM, %) GluN2D [3]: 119%
- EC50 [4, 10]: 7.6 µM
- Emax [4, 12]: 132%
- I30 μM/Icontrol (mean ± SEM, %) GluN2C [5]: 131%
Compound: CCOc1ccc(OC[C@@H]2c3ccc(OC(C)C)cc3CCN2C(=O)c2cccc(F)c2)cc1 [(S)-(−)-1180-87]
